Tests used:
[1] = Efficacy of octenidine in Octeniderm with added dye
Excerpt: However, blue dyes are not accepted by the market on account of the poor visibility of the vessels under the skin.

S. aureus ATCC 6538 = assay: Method A: remanence effect of the dried preparation on tiles, germ count determination; assay type: cell-based; conditions: preliminary experiments with a new type of method
Protocol: No in-vitro method was hitherto known for being able to rapidly examine (i.e. screen) the potential impairment of the remanent effect of antiseptic active ingredients due to added dyes, and specifically in particular in the presence of large amounts of solvents, such as alcohols. […] 0.2 ml of the test preparation was spread to the edge on a tile measuring 5×5 cm and left to dry optically. Here, solvents evaporate and the antiseptic active ingredient (octenidine was tested) remains on the tile. Then, 0.1 ml of bacteria suspension (test germ S. aureus ATCC 6538, starting germ count of the solution 10^6 CFU/ml, on the tile then 10^5 CFU/ml) is applied to an area of 3×3 cm on the tile. After the corresponding contact time, the tile is transferred to a container filled with glass beads (diameter 3-4 mm) and 10 ml of neutralization solution (TLSH) and shaken for 2 minutes on a horizontal shaker at 200 rpm. Finally, a germ count determination is performed by means of dilution series. The dilution stages 10^0, 10^−1, 10^−2 and 10^−3 are plated out. The agar plates are incubated for 24-48 hours at 36±1° C. The CFU/ml resulting therefrom is used to calculate the logarithmic reduction factor (RF) for the preparations and the water control. A high […] reduction factor means good bactericidal efficacy of the preparation. […]

CCN(CC)c1ccc(C(=C2C=CC(=[N+](CC)CC)C=C2)c2cc(O)c(S(=O)(=O)[O-])cc2S(=O)(=O)[O-])cc1.CCN(CC)c1ccc(C(=C2C=CC(=[N+](CC)CC)C=C2)c2cc(O)c(S(=O)(=O)[O-])cc2S(=O)(=O)[O-])cc1.[Ca+2] [Patent Blue V]
restriction of the efficacy of the octenidine in Octeniderm by the dye [1]: no restriction of the efficacy

O=C([O-])c1ccccc1-c1c2ccc(=O)cc-2oc2cc([O-])ccc12.[Na+].[Na+] [uranine]
remanence effect of octenidine in preparations which comprise the dye (S. aureus ATCC 6538): inhibited

From US9675701B2, “Coloured disinfectant preparation based on bispyridiniumalkane” (L'AIR LIQUIDE, SOCIETE ANONYME POUR L'ETUDE ET …, priority 2014, dated 2017)
